Values after ≈ are worked out from the molar mass of the structure shown.
Tests used:
[1] = system: Staphylococcus epidermidis; experiment: Antibacterial activity against Staphylococcus epidermidis ATCC 12228 after 24 hrs by broth microdilution method; type: functional; conditions: ATCC 12228, 24 h
[2] = system: Salmonella typhimurium; experiment: Antibacterial activity against Salmonella typhimurium ATCC 13311 after 24 hrs by broth microdilution method; type: functional, Salmonella enterica subsp. enterica serovar Typhimurium; conditions: Salmonella enterica, ATCC 13311, 24 h
[3] = system: Streptococcus mitis; experiment: Antibacterial activity against Streptococcus mitis NCIMB 13770 after 24 hrs by broth microdilution method; type: functional; conditions: NCIMB 13770, 24 h
[4] = system: Cutibacterium acnes; experiment: Antibacterial activity against Propionibacterium acnes ATCC 6919 after 24 hrs by broth microdilution method; type: functional; conditions: ATCC 6919, 24 h
[5] = system: Staphylococcus aureus; experiment: Growth inhibition of Staphylococcus aureus ATCC 25923 at 50 uM after 24 hrs by broth microdilution method; type: functional; conditions: ATCC 25923, 24 h, read-out: GI
[6] = system: Candida albicans; experiment: Growth inhibition of Candida albicans ATCC 90028 at 50 uM after 48 hrs by broth microdilution method; type: functional; conditions: ATCC 90028, 48 h, read-out: GI
[7] = system: Escherichia coli; experiment: Growth inhibition of Escherichia coli ATCC 25922 at 50 uM after 24 hrs by broth microdilution method; type: functional; conditions: ATCC 25922, 24 h, read-out: GI
[8] = system: Escherichia coli; experiment: Antibacterial activity against Escherichia coli ATCC 25922 after 24 hrs by broth microdilution method; type: functional
[9] = system: Candida albicans; experiment: Antifungal activity against Candida albicans ATCC 90028 after 48 hrs by broth microdilution method; type: functional; conditions: ATCC 90028, 48 h
[10] = system: Staphylococcus aureus; experiment: Antibacterial activity against methicillin-resistant Staphylococcus aureus ATCC 4330 after 24 hrs by broth microdilution method; type: functional; conditions: ATCC 4330, 24 h
[11] = Antifungal activity against Rhodotorula mucilaginosa ATCC 66034 after 48 hrs by broth microdilution method; type: functional
[12] = system: Staphylococcus aureus; experiment: Antibacterial activity against Staphylococcus aureus ATCC 25923 after 24 hrs by broth microdilution method; type: functional; conditions: ATCC 25923, 24 h
[13] = Antifungal activity against Cladosporium cladosporioides ATCC 16022 after 48 hrs by broth microdilution method; type: functional
[14] = system: Staphylococcus aureus; experiment: Ratio of MIC90 for Staphylococcus aureus ATCC 25923 to MIC90 for methicillin-resistant Staphylococcus aureus ATCC 4330; type: functional

For O=C(N[C@H](CO)[C@H](O)c1ccc([N+](=O)[O-])cc1)C(Cl)Cl [CHLORAMPHENICOL], the MIC90 [1] was 8 µg/mL (≈ 24.8 µM), the MIC90 [2] was 8 µg/mL (≈ 24.8 µM) and the MIC90 [3] was 4 µg/mL (≈ 12.4 µM). It also gave an MIC90 [4] of 4 µg/mL (≈ 12.4 µM).
COC(=O)CNC(=O)[C@]1(C)CCC[C@@]2(C)[C@H]1CC=C1C=C(C(C)C)CC[C@@H]12 showed an inhibition of growth at 50 µM [5] of 13%, an inhibition of growth at 50 µM [6] of 20% and an inhibition of growth at 50 µM [7] of 8%.
COC(=O)[C@H](Cc1ccccc1)NC(=O)[C@]1(C)CCC[C@@]2(C)[C@H]1CC=C1C=C(C(C)C)CC[C@@H]12 showed an inhibition of growth at 50 µM [5] of -1%, an inhibition of growth at 50 µM [6] of -13% and an inhibition of growth at 50 µM [7] of 6%.
GENTAMICIN gave an MIC90 [8] of 2 µg/mL.
COC(=O)[C@H](CC1CCCCC1)NC(=O)[C@]1(C)CCC[C@@]2(C)[C@H]1CC=C1C=C(C(C)C)CC[C@@H]12 gave an inhibition of growth at 50 µM [5] of -8%, an inhibition of growth at 50 µM [6] of -35% and an inhibition of growth at 50 µM [7] of 3%.
In the case of COC(=O)[C@H](CC(C)C)NC(=O)[C@]1(C)CCC[C@@]2(C)[C@H]1CC=C1C=C(C(C)C)CC[C@@H]12, the inhibition of growth at 50 µM [5] is reported as -9%, the inhibition of growth at 50 µM [6] is reported as -8% and the inhibition of growth at 50 µM [7] is reported as 6%.
With CC1(C)S[C@@H]2[C@H](NC(=O)[C@H](N)c3ccccc3)C(=O)N2[C@H]1C(=O)O [AMPICILLIN] the MIC90 [1] was 2 µg/mL (≈ 5.72 µM), the MIC90 [2] was 0.5 µg/mL (≈ 1.43 µM) and the MIC90 [3] was 2 µg/mL (≈ 5.72 µM). For the same compound, the MIC90 [4] was 0.125 µg/mL (≈ 0.358 µM).
With C[C@@H]1[C@H](O)[C@@H](C)/C=C/C=C/C=C/C=C/C=C/C=C/C=C/[C@H](O[C@@H]2O[C@H](C)[C@@H](O)[C@H](N)[C@@H]2O)C[C@@H]2O[C@](O)(C[C@@H](O)C[C@@H](O)[C@H](O)CC[C@@H](O)C[C@@H](O)CC(=O)O[C@H]1C)C[C@H](O)[C@H]2C(=O)O [AMPHOTERICIN B] the MIC90 [9] was 16 µg/mL (≈ 17.3 µM).
For COC(=O)[C@H](CO)NC(=O)[C@]1(C)CCC[C@@]2(C)[C@H]1CC=C1C=C(C(C)C)CC[C@@H]12, the inhibition of growth at 50 µM [5] was 76%, the MIC90 [1] was 16 µg/mL (≈ 39.6 µM) and the MIC90 [2] was over 125 µg/mL. The MIC90 [10] was 62 µg/mL (≈ 154 µM), the MIC90 [3] was over 125 µg/mL and the MIC90 [11] was 31 µg/mL (≈ 76.8 µM). It also gave an IC50 [12] of 21 to 30 µg/mL (≈ 52 to 74.3 µM), an MIC90 [12] of 61 µg/mL (≈ 151 µM) and an MIC90 [4] of over 125 µg/mL. It also gave an inhibition of growth at 50 µM [6] of 39%, an MIC90 [13] of over 125 µg/mL and an inhibition of growth at 50 µM [7] of 9%.
For COC(=O)[C@H](CO)NC(=O)[C@]1(C)CCC[C@]2(C)c3ccc(C(C)C)cc3CC[C@@H]12, the IC50 [12] was 21 to 30 µg/mL (≈ 52.3 to 74.7 µM) and the MIC90 [12] was over 125 µg/mL.
With CC(C)C1=CC2=CC[C@@H]3[C@](C)(CCC[C@@]3(C)C(=O)O)[C@H]2CC1 [ABIETIC ACID] the inhibition of growth at 50 µM [5] was 44 to 45%, the MIC90 [1] was 8 µg/mL (≈ 26.4 µM) and the MIC90 [2] was 31 µg/mL (≈ 102 µM). It also gave an MIC90 [10] of 31 µg/mL (≈ 102 µM), an MIC90 [3] of 16 µg/mL (≈ 52.9 µM) and an MIC90 [11] of 31 µg/mL (≈ 102 µM). The MIC90 [12] was 63 µg/mL (≈ 208 µM), the MIC90 [4] was 4 µg/mL (≈ 13.2 µM) and the inhibition of growth at 50 µM [6] was -53%. It also gave an MIC90 [13] of 63 µg/mL (≈ 208 µM) and an inhibition of growth at 50 µM [7] of 0%.
Compound COC(=O)[C@@H](CO)NC(=O)[C@]1(C)CCC[C@]2(C)c3ccc(C(C)C)cc3CC[C@@H]12 has an MIC90 [1] of 8 µg/mL (≈ 19.9 µM), an MIC90 [2] of 31 µg/mL (≈ 77.2 µM) and an MIC90 [10] of 8 µg/mL (≈ 19.9 µM). It also gave an MIC90 [3] of 8 µg/mL (≈ 19.9 µM), an MIC90 [11] of 31 µg/mL (≈ 77.2 µM) and a Ratio [14] of 7.5. The IC50 [12] was 21 to 30 µg/mL (≈ 52.3 to 74.7 µM), the MIC90 [12] was 60 µg/mL (≈ 149 µM) and the MIC90 [4] was 16 µg/mL (≈ 39.8 µM). For the same compound, the MIC90 [13] was over 125 µg/mL.
COC(=O)[C@@H](NC(=O)[C@]1(C)CCC[C@@]2(C)[C@H]1CC=C1C=C(C(C)C)CC[C@@H]12)C(C)C gave an inhibition of growth at 50 µM [5] of 6%, an inhibition of growth at 50 µM [6] of 0% and an inhibition of growth at 50 µM [7] of 6%.
For NYSTATIN, the MIC90 [11] was 0.125 µg/mL and the MIC90 [13] was 64 µg/mL.
With CC[C@H]1OC(=O)[C@H](C)[C@@H](O[C@H]2C[C@@](C)(OC)[C@@H](O)[C@H](C)O2)[C@H](C)[C@@H](O[C@@H]2O[C@H](C)C[C@H](N(C)C)[C@H]2O)[C@](C)(OC)C[C@@H](C)C(=O)[C@H](C)[C@@H](O)[C@]1(C)O [CLARITHROMYCIN] the MIC90 [3] was 0.25 µg/mL (≈ 0.334 µM) and the MIC90 [4] was 0.5 µg/mL (≈ 0.668 µM).
O=C(O)c1cn(C2CC2)c2cc(N3CCNCC3)c(F)cc2c1=O [CIPROFLOXACIN] gave an MIC90 [12] of 1 µg/mL (≈ 3.02 µM).
CC[C@H](NC(=O)[C@]1(C)CCC[C@@]2(C)[C@H]1CC=C1C=C(C(C)C)CC[C@@H]12)C(=O)OC gave an inhibition of growth at 50 µM [5] of -12%, an inhibition of growth at 50 µM [6] of 23% and an inhibition of growth at 50 µM [7] of 11%.
Work on CN(C)[C@@H]1C(O)=C(C(N)=O)C(=O)[C@@]2(O)C(O)=C3C(=O)c4c(O)cccc4[C@@](C)(O)[C@H]3C[C@@H]12 [TETRACYCLINE] yielded an MIC90 [1] of 1 µg/mL (≈ 2.25 µM), an MIC90 [2] of 16 µg/mL (≈ 36 µM) and an MIC90 [3] of 1 µg/mL (≈ 2.25 µM). It also gave an MIC90 [4] of 2 µg/mL (≈ 4.5 µM).
With OC(Cn1cncn1)(Cn1cncn1)c1ccc(F)cc1F the MIC90 [11] was 0.5 µg/mL (≈ 1.63 µM) and the MIC90 [13] was 520 µg/mL (≈ 1700 µM).

From ChEMBL document CHEMBL3868600, “Antibacterial profiling of abietane-type diterpenoids” (Bioorg Med Chem, 2017)
